Results: patent US20220370463A1, “STABILIZED C-FMS INTRACELLULAR FRAGMENTS (FICD) PROMOTE OSTEOCLAST DIFFERENTIATION AND ARTHRITIC BONE EROSION” (New York Society for the Relief of the Ruptured and …, priority 2019, published 2022)

What was measured:
L-FICD generation = experiment: Screening of 53 protease inhibitors from a protease library for L-FICD generation; assay type: cell-based
Excerpt: To identify the protease(s) responsible for cleavage of H-FICD in an unbiased manner, we performed a screening of 53 protease inhibitors using a protease library. The best hits associated with the inhibition of L-FICD generation were MDL28170 and PD150606—two calpain inhibitors—along with MMP inhibitors and γ-secretase inhibitors. Calpain is the family of calcium-dependent cytosolic cysteine proteases expressed ubiquitously in mammals and many other organisms (Pfaff, M., Du, X. & Ginsberg, M. H. Calpain cleavage of integrin beta cytoplasmic domains. FEBS Lett 460, 17-22 (1999)), and calpain-dependent cleavages contribute to modulating various cellular functions such as apoptosis, proliferation and migration (Deshpande, R. V. et al. Calpain expression in lymphoid cells. Increased mRNA and protein levels after cell activation. J Biol Chem 270, 2497-2505 (1995). Svensson, L. et al. Calpain 2 controls turnover of LFA-1 adhesions on migrating T lymphocytes. PloS one 5, e15090, doi:10.1371/journal.pone.0015090 (2010).). […] Since calpain is activated by calcium, we examined if calcium signaling could compensate for M-CSF signaling to generate FICDs. In the absence of c-FMS signaling, calcium signaling was able to promote the cleavage of […] in the nucleus, and […] reversed the effect of calcium signaling on L-FICD processing (FIG.10C). […]

[1] = tested on: FICD (mem, H-FICD, L-FICD); experiment: FICD in membrane, cytoplasmic and nuclear fractions of human OCPs, immunoblot; assay type: cell-based
Procedure: (a) Human CD14+ cells were cultured with M-CSF (20 ng/ml) for 8 hours to induce early signals and then DAPT (10uM) was added for 2 days. Protein expression of c-FMS, Na+K+ pump, Lamin B1 and α-tubulin, as determined by immunoblot. ME; membrane extracts, CE; cytoplasmic extracts, and NE; nuclear extracts. (b) Immunohistochemistry of DAPI and c-FMS [middle]. […] Scale: 200×. (c) Cells were starved for three hours and then stimulated with M-CSF for the indicated times. (d and e) Cells were treated with Imatinib (0.3 μM, d) or c-FMS blocking antibody (5 μg) prior to the addition of M-CSF. Protein expression of FICD was measured by immunoblot. Lamin B1 and α-tubulin were used as controls for nuclear and cytoplasmic fractions, respectively. (f) Human CD14+ cells were cultured with M-CSF (20 ng/ml) for 8 hours to induce early signals and then MDL 28170(5 uM). Immunoblot with anti c-FMS and Lamin B1 antibodies. (g and h) Calpain 1, 5, and 6 were knocked down with siRNAs. Cells were cultured with M-CSF for 12 hours. (g) Efficiency of knockdown of Calpain 1, 5, and 6. (h) Immunoblot of c-FMS and Lamin B1. All data are shown as mean±SEM. *,p<0.05 by two-tailed, unpaired t-test (g). Representative results from at least three independent experiments.
(A and B) Human CD14+ cells were cultured with M-CSF (20 ng/ml) for 8 hours to induce early signals and then (A) MDL 28170(0, 1, 2, 5 uM) or (B) PD150606 (0, 2, 5 uM) was added for 2 days. Immunoblot with anti c-FMS and α-tubulin antibodies in whole lysates(n=3). (C) Immunoblot of nuclear lysates with c-FMS and Lamin B1 antibodies. Cells were cultured with M-CSF for 12 hours, and then M-CSF was removed. Cells were subsequently treated with or without CaCl2 (10 mM) for an additional 24 hours. (D) Osteoclastogenesis assay. Human CD14+ cells were cultured with M-CSF, RANKL and MDL28170 for 4 days. […] Black scale bar is 100 μm. […] First two calpain cleavage sites in cytoplasmic domains of c-FMS were used for FICD constructs. (F) A schematic diagram of a FICD construct. Representative results from at least three independent experiments.
Whole cell extracts were prepared by lysis in buffer containing 1× Lamin sample buffer (Bio-rad) and 2-Mercaptoethanol (Sigma) or RIPA buffer (Sigma). The cell membrane-permeable protease inhibitor, Pefablock (1 mM), was added immediately prior to harvest cells. The membrane proteins were extracted with Mem-PER™ Plus Membrane Protein Extraction Kit (Thermorfisher scientific; 89842) according to manufacturer's instructions. To extracts of nucleus protein, cells were incubated in buffer A (10 mM Hepes, pH 7.9, 1.5 mM MgCl2, 10 mM KCl, 0.1 mM EDTA, 0.1 mM EGTA, proteinase inhibitor cocktail (Complete, Roche) and 1 mM DTT) for 15 min at 4° C. NP-40 was added to a final concentration of 0.5%. Nucleus was collected by centrifugation (5000 rpm, 5 min). The pellets were lysed by Bioruptor-ultrasonicator (UCD400, Diagenode) in buffer B (20 mM Hepes, pH 7.9, 0.4M NaCl, 10 mM KCl, 1 mM EDTA, 1 mM EGTA, 10% Glycerol, proteinase inhibitor cocktail and 1 mM DTT) and collected the supernatant by centrifugation (12,000 rpm, 10 min). The protein concentration of nuclear extracts was quantitated using the Bradford assay (Bio-Rad; 5000001). For immunoblot, proteins were separated on 7.5 or 10% SDS-PAGE gels, transferred to polyvinylidene difluoride membranes (PVDF, Millipore; ISEQ00010), and detected by antibodies as listed in the figure legends.

[2] = MDL 28170 5 uM after 8 hours M-CSF, nuclear extracts

With MDL28170 as the substance, how does the “inhibition of L-FICD generation (hit in screening)” value (L-FICD generation) read?
The value was “best hits”.

And the “effect of calcium signaling on L-FICD processing” value ([1]; M-CSF removed, CaCl2 (10 mM) for 24 hours, nuclear lysates)?
The value was “reversed”.

What about the “enrichment of L-FICD versus H-FICD in the nucleus” value [1, 2] of the same substance?
Its value is “shifted the enrichment of L-FICD to H-FICD in the nucleus”.

And the “translocation of FICD into the nucleus” value [1, 2]?
Its value is “did not interfere”.
